Test results taken from patent US11371077B2, “High throughput cell-based screening for aptamers” (MeiraGTx UK II Limited, priority 2016, dated 2022).
Counter-ions that a name gives are not always drawn. Like-named read-outs stand apart in the source and are kept apart here.

Columns and labels:
Assay type in all cases: cell-based
[1] = system: xpt-G17 riboswitch; assay: Luciferase reporter assay, xpt-G17 riboswitch, transfected HEK 293 cells; details: for fold induction at 100 µM: Homo sapiens, HEK293, xpt-G17 riboswitch; for response of guanine riboswitch xpt-G17 to compound (FIG. 1e): Prestwick library at 100 μM
From the text: (§1) A truncated human beta-globin intron sequence was synthesized and inserted in the coding sequence of a firefly luciferase gene. A mutant human DHFR exon 2 was synthesized and inserted in the middle of this truncated beta-globin intron sequence using Golden gate cloning strategy. Aptamers including xpt-G/A^1, ydhl-G/A^2, yxj^3, add^4, gdg6-G/A^5 (citations for the aptamers are incorporated herein by reference) were synthesized as oligonucleotides (“oligos”) with 4 nucleotide overhang at the 5′ end that are complementary to two different BsaI sites individually (IDT), annealed and ligated to BsaI-digested mDHFR-Luci-acceptor vector.
(§2) 3.5×10^4 HEK 293 cells were plated in a 96-well flat bottom plate the day before transfection. Plasmid DNA (500 ng) was added to a tube or a 96-well U-bottom plate. Separately, TransIT-293 reagent (Mirus; 1.4 μL) was added to 50 μL Opti-mem I media (Life Technologies), and allowed to sit for 5 minutes at room temperature (RT). Then, 50 μL of this diluted transfection reagent was added to the DNA, mixed, and incubated at RT for 20 min. Finally, 7 μL of this solution was added to a well of cells in the 96-well plate.
(§3) 24 hours after media change, plates were removed from the incubator, and equilibrated to RT for several minutes on a lab bench, then aspirated. Glo-lysis buffer (Promega, 100 μL, RT) was added, and the plates maintained at RT for at least 5 minutes. Then, the well contents were mixed by 50 μL trituration, and 20 μL of each sample was mixed with 20 μL of bright-glo reagent (Promega) that had been diluted to 10% in glo-lysis buffer. 96 wells were spaced on an opaque white 384-well plate. Following a 5 min incubation at RT, luminescence was measured using a Tecan machine with 500 mSec read time. The luciferase activity was expressed as mean relative light unit (RLU)±S.D., and fold induction was calculated as the luciferase activity obtained with guanine treatment divided by luciferase activity obtained without guanine treatment.

[2] = system: gdg6-A8 riboswitch; assay: Luciferase reporter assay, gdg6-A8 riboswitch, transfected HEK 293 cells; details: for fold induction at 100 µM: Homo sapiens, HEK293, gdg6-A8 riboswitch, Prestwick library compounds at 100 μM, HEK 293
From the text: (§4) Riboswitches were constructed as described in PCT/US2016/016234 (in particular Examples 3 to 6), incorporated herein by reference. A truncated human beta-globin intron sequence was synthesized and inserted in the coding sequence of a firefly luciferase gene. A mutant human DHFR exon 2 was synthesized and inserted in the middle of this truncated beta-globin intron sequence using Golden gate cloning strategy. Aptamers including xpt-G/A^1, ydhl-G/A^2, yxj^3, add^4, gdg6-G/A^5 (citations for the aptamers are incorporated herein by reference) were synthesized as oligonucleotides (“oligos”) with 4 nucleotide overhang at the 5′ end that are complementary to two different BsaI sites individually (IDT), annealed and ligated to BsaI-digested mDHFR-Luci-acceptor vector.
as §2, §3

[3] = system: yxj-A6 riboswitch; assay: cells; details: for fold induction at 100 µM: Homo sapiens
From the text: as §1, §2
as §3, with “The luciferase activity was expressed as mean relative light unit (RLU)±S.D., and fold induction was calculated as the luciferase activity obtained with guanine treatment divided by luciferase activity obtained without guanine treatment.” left out

[4] = system: add-A6 riboswitch; assay: cells; details: for fold induction at 100 µM: Homo sapiens
From the text: as §4, §2, §3

[5] = system: xpt-A8 riboswitch; assay: cells; details: for fold induction at 100 µM: Homo sapiens
From the text: as §4, §2, §3

[6] = system: ydhl-A6 riboswitch; assay: Luciferase reporter assay, ydhl-A6 riboswitch, transfected HEK 293 cells; details: Homo sapiens, HEK293, read-out: Fold Induction of luciferase activity, ydhl-A6 riboswitch; Prestwick library compounds at 100 μM; HEK 293
From the text: as §1
as §2, with “Separately, TransIT-293 reagent (Mirus; 1.4 μL) was added to 50 μL Opti-mem I media (Life Technologies), and allowed to sit for 5 minutes at room temperature (RT).” left out
as §3

[7] = system: gdg6-G8 riboswitch; assay: Luciferase reporter assay, gdg6-G8 riboswitch, transfected HEK 293 cells; details: for fold induction at 100 µM: Homo sapiens, HEK293, gdg6-G8 riboswitch, Prestwick library compounds at 100 μM, HEK 293
From the text: as §4, §2, §3

[8] = system: add-G6 riboswitch; assay: cells; details: for fold induction at 100 µM: Homo sapiens
From the text: as §1
as §2, with “Separately, TransIT-293 reagent (Mirus; 1.4 μL) was added to 50 μL Opti-mem I media (Life Technologies), and allowed to sit for 5 minutes at room temperature (RT).” left out
as §3, with “The luciferase activity was expressed as mean relative light unit (RLU)±S.D., and fold induction was calculated as the luciferase activity obtained with guanine treatment divided by luciferase activity obtained without guanine treatment.” left out

[9] = system: ydhl-G8 riboswitch; assay: Luciferase reporter assay, ydhl-G8 riboswitch, transfected HEK 293 cells; details: for fold induction at 100 µM: Homo sapiens
From the text: as §1
as §2, with “Separately, TransIT-293 reagent (Mirus; 1.4 μL) was added to 50 μL Opti-mem I media (Life Technologies), and allowed to sit for 5 minutes at room temperature (RT).” left out
as §3

[10] = system: riboswitches with guanine aptamers; assay: Dose responses of constructs with different aptamer based riboswitches (FIG. 1b); details: mammalian cells
From the text: as §1
3.5×10^4 HEK 293 cells were plated in a 96-well flat bottom plate the day before transfection. Plasmid DNA (500 ng) was added to a tube or a 96-well U-bottom plate. […] Then, 50 μL of this diluted transfection reagent was added to the DNA, mixed, and incubated at RT for 20 min. […]
24 hours after media change, plates were removed from the incubator, and equilibrated to RT for several minutes on a lab bench, then aspirated. […] Following a 5 min incubation at RT, luminescence was measured using a Tecan machine with 500 mSec read time. The luciferase activity was expressed as mean relative light unit (RLU)±S.D., and fold induction was calculated as the luciferase activity obtained with guanine treatment divided by luciferase activity obtained without guanine treatment.

[11] = Prestwick library compounds at 100 μM, HEK 293, preliminary screen
[12] = HEK293, read-out: Fold Induction of luciferase activity
[13] = HEK293, yxj-A6 riboswitch, Prestwick library compounds at 100 μM, HEK 293, read-out: Fold Induction of luciferase activity
[14] = HEK293, add-A6 riboswitch, Prestwick library compounds at 100 μM, HEK 293, read-out: Fold Induction of luciferase activity
[15] = HEK293, xpt-A8 riboswitch, Prestwick library compounds at 100 μM, HEK 293, read-out: Fold Induction of luciferase activity
[16] = HEK293, add-G6 riboswitch, Prestwick library compounds at 100 μM, HEK 293, read-out: Fold Induction of luciferase activity

Compound	fold induction at 100 µM [1, 11]	fold induction at 100 µM [2]	fold induction at 100 µM [7]	fold induction at 100 µM [3, 13]	fold induction at 100 µM [4, 14]	fold induction at 100 µM [5, 15]	fold induction at 100 µM [8, 16]	further results
Nc1nc2nn[nH]c2c(=O)[nH]1 [8-Azaguanine]	131	306	42.3	–	–	–	–	response of guanine riboswitch xpt-G17 to compound (FIG. 1e) ([1]; preliminary screen): responded; fold induction at 100 µM [3, 12]: 55.6; fold induction at 100 µM [4, 12]: 22.1; fold induction at 100 µM [5, 12]: 95.1; fold induction at 100 µM [6]: 3.7; fold induction at 100 µM [8, 12]: 47.9; fold induction at 100 µM [9, 12]: 35.6
Cn1cnc([N+](=O)[O-])c1Sc1ncnc2nc[nH]c12 [Azathioprine]	6.2	19.9	16.2	6.6	6.5	5.9	11.4	–
S=c1nc[nH]c2nc[nH]c12 [Mercaptopurine]	–	17.2	16.2	10	15	3.4	14.3	fold induction at 100 µM [9, 12]: 3.6
CN1CCC(=C2c3ccccc3Sc3ccccc32)CC1 [Pimethixene maleate]	4.7	9.2	5.1	4.9	4.2	3.3	6.6	–
CN(C)CCCN1c2ccccc2Sc2ccccc21 [Promazine hydrochloride]	3.7	12.6	6.2	–	–	–	–	fold induction at 100 µM [3, 12]: 6.6; fold induction at 100 µM [4, 12]: 10.5; fold induction at 100 µM [5, 12]: 4.1; fold induction at 100 µM [8, 12]: 5.4; fold induction at 100 µM ([9]; HEK293, ydhl-G8 riboswitch, Prestwick library compounds at 100 μM, HEK 293, read-out: Fold Induction of luciferase activity): 5.2
CC(CN1c2ccccc2Sc2ccccc21)N(C)C (stereo not shown) [Promethazine hydrochloride]	5.3	4.8	6.5	7.9	4.5	5.4	6.7	–
Nc1nc2nc[nH]c2c(=O)[nH]1 [guanine]	–	–	–	–	–	–	–	response of guanine riboswitch xpt-G17 to compound (FIG. 1e) ([1]; preliminary screen): responded; induction fold of luciferase reporter in response to guanine ([1]; xpt-G17, high concentration of guanine): 2000 fold; response of riboswitches with guanine aptamers (reporter gene expression, FIG. 1b) [10]: responds
Nc1nc2c(ncn2[C@@H]2O[C@H](CO)[C@@H](O)[C@H]2O)c(=O)[nH]1 [guanosine]	–	–	–	–	–	–	–	response of riboswitches with guanine aptamers (reporter gene expression, FIG. 1b) [10]: responds
thioguanosine	–	–	–	–	–	–	–	Fold Induction of luciferase activity ([1]; xpt-G17 riboswitch, Prestwick library compounds at 100 μM, HEK 293, preliminary screen): 21.0 fold; Fold Induction of luciferase activity ([2]; 100 µM): 20.1 fold; Fold Induction of luciferase activity ([3]; yxj-A6 riboswitch, Prestwick library compounds at 100 μM, HEK 293): 10.2 fold; Fold Induction of luciferase activity ([4]; add-A6 riboswitch, Prestwick library compounds at 100 μM, HEK 293): 5.9 fold; Fold Induction of luciferase activity ([5]; xpt-A8 riboswitch, Prestwick library compounds at 100 μM, HEK 293): 11.8 fold; Fold Induction of luciferase activity ([7]; 100 µM): 15.9 fold; Fold Induction of luciferase activity ([8]; add-G6 riboswitch, Prestwick library compounds at 100 μM, HEK 293): 7.9 fold; Fold Induction of luciferase activity ([9]; ydhl-G8 riboswitch, Prestwick library compounds at 100 μM, HEK 293): 7.5 fold
